Marks after values point to notes of the source that are not given here.
Key:
[1] = tested on: QS and virulence associated genes of APEC O78; assay: qRT-PCR of QS-regulated and virulence factors genes; assay type: cell-based, avian pathogenic Escherichia coli (APEC); details: 100 µM, 10 h
Method: Quantitative real-time reverse transcription PCR (qRT-PCR). […] APEC O78 was grown in the presence of 100 µM of each compound in a 96-well plate at 37° C. for 10 h. APEC O78 culture treated with 1 µL of 100% DMSO was used as […]. Total RNA was extracted from duplicate wells for each compound (200 µL) using a miRNeasy Mini Kit (Qiagen). RNA quality and quantity was determined by nanodrop 2000 C spectrophotometer (Thermo scientific). Traces of DNA was removed using Genomic DNA removal mix (Qiagen). Approximately, 5 µg of purified RNA was used to synthesize cDNA using the Qiagen RT^2 First Strand Kit (Qiagen). The qRT-PCR was performed using SensiMix™ SYBER® Hi-Rox qPCR Master Mix (Bioline) according to manufacturer instructions in a realplex^2 mastercycler (Eppendorf) with 55° C. annealing temperature. Gene-specific primers were designed using PrimerQuest Tool and obtained from integrated DNA technologies (IDT). The data were normalized to the house-keeping gene, glyceraldehyde-3-phosphate dehydrogenase (GAPDH). The relative fold change was calculated using the ΔΔCt method. Three independent experiments were conducted.

APEC O2 in HD-11 cells = assay: Intracellular survival assay (AI-2 inhibitors); details: O2, HD-11, 100 µM, 6 h
[2] = tested on: AI-2 activity of APEC O78; assay: AI-2 bioluminescence indicator assay (V. harveyi BB170); details: APEC O78, 100 µM
AI-2 activity of APEC O2 = assay: as above; details: APEC O2, 100 µM
AI-2 activity of APEC O1 = assay: as above; details: APEC O1, 100 µM
AI-2 activity of APEC O8 = assay: as above; details: APEC O8, 100 µM
[3] = tested on: AI-2 activity of APEC O15; assay: as above; details: APEC O15, 100 µM
[4] = tested on: AI-2 activity of APEC O18; assay: as above; details: APEC O18, 100 µM
[5] = tested on: AI-2 activity of APEC O35; assay: as above; details: APEC O35, 100 µM
[6] = tested on: AI-2 activity of APEC O109; assay: as above; details: APEC O109, 100 µM
[7] = tested on: AI-2 activity of APEC O115; assay: as above; details: APEC O115, 100 µM
Rif^r APEC O78 [8] = assay: Wax moth (Galleria mellonella) larva infection model (AI-2 inhibitors); details: 48 h post treatment
Rif^r APEC O78 [9] = assay: In vivo screening of quorum sensing inhibitors in APEC infected broiler chickens
APEC O78 [10] = assay type: cell-based, avian pathogenic Escherichia coli (APEC); details: APEC O78, M63 media; cell prints MIC/MBC
APEC O1 = assay type: cell-based, avian pathogenic Escherichia coli (APEC); details: APEC O1, M63 media; MIC/MBC
APEC O2 = assay type: cell-based, avian pathogenic Escherichia coli (APEC); details: APEC O2, M63 media; MIC/MBC
APEC O8 = assay type: cell-based, avian pathogenic Escherichia coli (APEC); details: APEC O8, M63 media; MIC/MBC
APEC O15 = assay type: cell-based, avian pathogenic Escherichia coli (APEC); details: APEC O15, M63 media; MIC/MBC
APEC O18 = assay type: cell-based, avian pathogenic Escherichia coli (APEC); details: APEC O18, M63 media; MIC/MBC
APEC O35 = assay type: cell-based, avian pathogenic Escherichia coli (APEC); details: APEC O35, M63 media; MIC/MBC
APEC O115 = assay type: cell-based, avian pathogenic Escherichia coli (APEC); details: APEC O115, M63 media; MIC/MBC
APEC O109 = assay type: cell-based, avian pathogenic Escherichia coli (APEC); details: APEC O109, M63 media; MIC/MBC
APEC O78-53 = assay type: cell-based, avian pathogenic Escherichia coli (APEC); details: APEC O78-53, M63 media; MIC/MBC
APEC O1-63 = assay type: cell-based, avian pathogenic Escherichia coli (APEC); details: APEC O1-63, M63 media; MIC/MBC
APEC O2-211 = assay type: cell-based, avian pathogenic Escherichia coli (APEC); details: APEC O2-211, M63 media; MIC/MBC
[11] = tested on: biofilm embedded APEC O78; assay: MBEC High-throughput assay; assay type: cell-based, avian pathogenic Escherichia coli (APEC); details: biofilm embedded APEC O78; superscript = multiple of MIC (footnote)
Method: Effect against biofilm embedded APEC. The effect of cidal SMs against biofilm embedded APEC was determined using MBEC High-throughput (HTP) assay (Innovotech Inc., AB, Canada). Briefly, 150 µL of 0.05 OD600 adjusted APEC O78 culture was aliquoted into each well of the MBEC device containing polystyrene pegs and incubated at 37° C. for 36 h in LB media under stationary condition. […] The plate was incubated in the dark for 18 h at 37° C. with rotation at 110 rpm. The DMSO (1%) and M63 media were used as positive and negative controls, respectively. Following incubation, MIC of SMs in challenged plate was recorded. The SMs exposed pegs were then transferred to a new 96-well plate containing PBS and sonicated for 30 mins (Aquasonic ultrasonic cleaner, VWR) to disrupt the biofilm. […] Biofilm embedded APEC bacteria were enumerated and minimum biofilm eradication concentration (MBEC) of […] were determined. Two independent experiments were conducted.

APEC O78 [12] = assay: Confocal microscopy bacterial cytological profiling; assay type: cell-based, avian pathogenic Escherichia coli (APEC); details: 2X MBC
Method: Confocal and scanning electron microscopy. Confocal microscopy was used for bacterial cytological profiling (BCP) to identify the cellular pathways targeted by SMs as described previously. […] After incubation, treated cultures were centrifuged, washed, and resuspended in 100 μL PBS. […] Cultures were then centrifuged, washed, and resuspended in PBS to 1⁄10th volume of the original cultures.

APEC O78 [13] = assay: Loss of 260/280 nm absorbing materials assay; assay type: cell-based, avian pathogenic Escherichia coli (APEC); details: 2X MBC, 1 h, *P<0.05 vs DMSO
[14] = tested on: intracellular APEC O78 in Caco-2 cells; assay: Intracellular survival assay (cidal SMs); details: O78, Caco-2, 6 h treatment; superscript = multiple of MIC
[15] = tested on: intracellular APEC O78 in HD11 cells; assay: Intracellular survival assay (cidal SMs); details: O78, HD11, 6 h treatment; superscript = multiple of MIC
[16] = tested on: intracellular APEC O78 in THP-1 cells; assay: Intracellular survival assay (cidal SMs); details: O78, THP-1, 6 h treatment; superscript = multiple of MIC
[17] = tested on: intracellular APEC O2 in Caco-2 cells; assay: Intracellular survival assay (cidal SMs); details: O2, Caco-2, 6 h treatment; superscript = multiple of MIC
[18] = tested on: intracellular APEC O2 in HD11 cells; assay: Intracellular survival assay (cidal SMs); details: O2, HD11, 6 h treatment; superscript = multiple of MIC
[19] = tested on: intracellular APEC O2 in THP-1 cells; assay: Intracellular survival assay (cidal SMs); details: O2, THP-1, 6 h treatment; superscript = multiple of MIC
[20] = tested on: intracellular APEC O1 in Caco-2 cells; assay: Intracellular survival assay (cidal SMs); details: O1, Caco-2, 6 h treatment; superscript = multiple of MIC
[21] = tested on: intracellular APEC O1 in HD11 cells; assay: Intracellular survival assay (cidal SMs); details: O1, HD11, 6 h treatment; superscript = multiple of MIC
[22] = tested on: intracellular APEC O1 in THP-1 cells; assay: Intracellular survival assay (cidal SMs); details: O1, THP-1, 6 h treatment; superscript = multiple of MIC
[23] = tested on: intracellular APEC O78, O2, and O1 in infected Caco-2, HD11, and THP1 cells; assay: Intracellular survival assay (cidal SMs), summary over serotypes and cells; details: overall ranking

For Cc1ccc(CN2CCN(CCCc3ccccc3)CC2)cc1 [C5], the “expression of fliP” value [1] was “down-regulated”, the expression of fpr [1] was “down-regulated” and the “clearance of intracellular APEC” value (APEC O2 in HD-11 cells) was 100%. For the same compound, the “reduction of intracellular survival” value (APEC O2 in HD-11 cells; vs DMSO) was 3.3 logs, the “Inhibition % of AI-2 activity” value [2] was 83% and the “Inhibition % of AI-2 activity” value (AI-2 activity of APEC O2) was 89%. The “Inhibition % of AI-2 activity” value (AI-2 activity of APEC O1) was 46%, the “Inhibition % of AI-2 activity” value (AI-2 activity of APEC O8) was 18% and the “Inhibition % of AI-2 activity” value [3] was 45%. For the same compound, the “Inhibition % of AI-2 activity” value [4] was 61%, the “Inhibition % of AI-2 activity” value [5] was 68% and the “Inhibition % of AI-2 activity” value [6] was 69%. The “Inhibition % of AI-2 activity” value [7] was 63%, the larval death (Rif^r APEC O78 [8]) was “no larval death” and the “reduction in chicken mortality” value (Rif^r APEC O78 [9]; DMSO control mortality normalized to 100%) was 100%. The “average lesion score reduction” value (Rif^r APEC O78 [9]; liver, heart, lung and airsac, vs DMSO) was 2.1-2.3, the “reduction of bacterial load in internal organs” value (Rif^r APEC O78 [9]; liver, lung, heart, and kidney, vs DMSO control, 'up to') was 5.2-6.1 log CFU/g and the “Mortality rate (%)” value (Rif^r APEC O78 [9]; oral gavage once a day, day 4 to day 8, DMSO control 66.7%) was 0%. For the same compound, the “Reduction in APEC lesions severity, Air-sacs (%)” value (Rif^r APEC O78 [9]; vs DMSO treated control) was 93.3%, the “Reduction in APEC lesions severity, Heart (%)” value (Rif^r APEC O78 [9]; vs DMSO treated control) was 87.5% and the “Reduction in APEC lesions severity, Liver (%)” value (Rif^r APEC O78 [9]; vs DMSO treated control) was 81.8%. The “Reduction in APEC lesions severity, Lung (%)” value (Rif^r APEC O78 [9]; vs DMSO treated control) was 88.9% and the “effect on body weight gain” value (Rif^r APEC O78 [9]; vs non-treated and non-infected control group) was “increased BWG”.

CC1CCC(C(C)C)C(OC(=O)Cn2c[n+](CC(=O)OC3CC(C)CCC3C(C)C)c3ccccc32)C1.[Cl-] (stereo not shown) [SM4] gave an MBC (APEC O78 [10]) of 50 µM, an MIC (APEC O78 [10]) of 25 µM and an MBC (APEC O1) of 50 µM. For the same compound, the MIC (APEC O1) was 25 µM, the MBC (APEC O2) was 50 µM and the MIC (APEC O2) was 25 µM. The MBC (APEC O8) was 25 µM, the MIC (APEC O8) was 25 µM and the MBC (APEC O15) was 25 µM. For the same compound, the MIC (APEC O15) was 25 µM, the MBC (APEC O18) was 50 µM and the MIC (APEC O18) was 25 µM. For the same compound, the MBC (APEC O35) was 25 µM, the MIC (APEC O35) was 25 µM and the MBC (APEC O115) was 25 µM. For the same compound, the MIC (APEC O115) was 25 µM, the MBC (APEC O109) was 25 µM and the MIC (APEC O109) was 25 µM. It also gave an MBC (APEC O78-53) of 50 µM, an MIC (APEC O78-53) of 25 µM and an MBC (APEC O1-63) of 50 µM. The MIC (APEC O1-63) was 25 µM, the MBC (APEC O2-211) was 25 µM and the MIC (APEC O2-211) was 25 µM. For the same compound, the MBEC [11] was 25^a µM, the “cytological profile (confocal, FM4-64 / SYTO-9)” value (APEC O78 [12]) was “membrane disruptors” and the “Absorbance 260” value (APEC O78 [13]; 260 nm absorbing material in supernatant) was 3.91*. The “Absorbance 280” value (APEC O78 [13]; 280 nm absorbing material in supernatant) was 2.69*, the “SMs intracellular APEC clearance concentration” value [14] was 50^b µM and the “SMs intracellular APEC clearance concentration” value [15] was 50^b µM. For the same compound, the “SMs intracellular APEC clearance concentration” value [16] was 56^b µM, the “SMs intracellular APEC clearance concentration” value [17] was 100^c µM and the “SMs intracellular APEC clearance concentration” value [18] was 50^b µM. The “SMs intracellular APEC clearance concentration” value [19] was 100^c µM, the “SMs intracellular APEC clearance concentration” value [20] was 100^c µM and the “SMs intracellular APEC clearance concentration” value [21] was 50^b µM. The “SMs intracellular APEC clearance concentration” value [22] was greater than 100 µM and the “effectiveness in clearing intracellular APEC serotypes in all tested cells” value [23] was “most effective”.

Source: US20230355597A1, “COMPOUNDS, COMPOSITIONS, AND METHODS FOR THE TREATMENT AND PREVENTION OF AVIAN PATHOGENIC E. COLI (APEC)” (OHIO STATE INNOVATION FOUNDATION, priority 2018, published 2023)
